Measurements: PubChem BioAssay (NCI)
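1) Cells in 96-well plates. 2) Compound, 48 h, 5 concentrations. 3) Linear interpolation between surrounding doses. 4) Unreached endpoint = highest concentration. Here, GI50 denotes the concentration required for 50% inhibition of growth. TGI denotes the concentration required for complete inhibition of growth.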

Key:
Test in all cases: NCI tumour cell line growth inhibition, 48 h
[1] = test system: DMS 114 small cell lung
[2] = test system: LXFL 529 NSCLC
[3] = test system: SNB-78 CNS
[4] = test system: XF 498 CNS
[5] = test system: 786-0 renal
[6] = test system: M19-MEL melanoma
[7] = test system: P388 leukemia
[8] = test system: P388/ADR leukemia
[9] = test system: SN12K1 renal
[10] = test system: DU-145 prostate
[11] = test system: MDA-N
[12] = test system: RXF-631 renal

How did the TGI [1] turn out when N/C(=C\c1ccc(/C=C(\NC(=O)c2ccccc2)c2nc3c([nH]2)C(=O)c2ccccc2C3=O)cc1)c1nc2c([nH]1)C(=O)c1ccccc1C2=O was run?
Its TGI is 22.9 µM.

What about the TGI [2] of the same compound?
Its TGI is 24.6 µM.

And the TGI [3]?
The TGI was 63.1 µM.

And the TGI [4]?
The TGI was 24.3 µM.

With COc1ccc2c(c1)C(=O)c1c-2n(CCCN=[N+]=[N-])c(=O)c2cc([N+](=O)[O-])ccc12 as the compound, how does the TGI [5] read?
Its TGI is 0.708 µM.

CCOC(=O)NC(=O)c1cn(CCN(CCO)C(=O)NCCCCCCNC(=O)N(CCO)CCn2cc(C(=O)NC(=O)OCC)c(=O)[nH]c2=O)c(=O)[nH]c1=O was tested. Which TGI [1] did it give?
Its TGI is greater than 100 µM.

What about the TGI [6] of the same compound?
Its TGI is greater than 100 µM.

What about the TGI [7] of the same compound?
The TGI was greater than 100 µM.

And the TGI [8]?
Its TGI is greater than 100 µM.

And the TGI [9]?
The TGI was greater than 100 µM.

What about the TGI [3] of the same compound?
The TGI was greater than 100 µM.

And the TGI [4]?
The TGI was greater than 100 µM.

Which results are given for COc1cc2c(c(OC)c1OC)-c1ccc(OC)c(=O)cc1C(NC(=O)CCCCCNc1ccc(N=[N+]=[N-])cc1[N+](=O)[O-])CC2 (stereo not drawn)?
TGI [10]: 0.354 µM; TGI [11]: < 0.01 µM

With COc1cc(-c2n/c(=C\c3c(O)[nH]c4ccccc34)cc3c2=Nc2ccccc2-3)ccc1F as the compound, how does the GI50 [10] read?
Its GI50 is 7.3 µM.

What about the TGI [10] of the same compound?
The TGI was 25.5 µM.

Which results are given for COc1nc2ccc(Cl)c(C(O)c3ccccc3)c2nc1OC (stereo not drawn)?
TGI [10]: > 100 µM; TGI [11]: 54.8 µM

What does the source list for CCCC[n+]1ccn(-c2nc3ccccc3n2C)c1?
TGI [1]: > 100 µM; TGI [2]: > 100 µM; TGI [12]: > 100 µM; TGI [3]: > 100 µM

For N#C[S-].[Ce+3].c1ccc(-c2ccccn2)nc1.c1ccc(-c2ccccn2)nc1.c1ccc(-c2ccccn2)nc1, which GI50 [1] is on record?
Its GI50 is 23.9 µM.

What about the TGI [1] of the same compound?
The TGI was 78.8 µM.

And the GI50 [6]?
The GI50 was 15.4 µM.

And the TGI [6]?
The TGI was 65.8 µM.

And the GI50 [3]?
The GI50 was 58.3 µM.

What about the TGI [3] of the same compound?
The TGI was greater than 100 µM.
